Read-outs that look alike come from different tables or passages of the source.
How the values were obtained:
K. pneumoniae JMI 27068 = experiment: MIC assay (CLSI broth microdilution; checkerboard with rifampin); assay type: cell-based, Klebsiella pneumoniae; conditions: in combination with rifampin (0.25 µg/mL), duplicate checkerboard assays; polymyxin-nonsusceptible strain
Method: (§1) Synergy studies were performed by using polymyxin derivatives in combination with rifampin, a model compound for such antibacterial agents that the intact outer membrane of Gram-negative bacteria acts as a permeability barrier.

[1] = dogs; cited from earlier work
[2] = rats; cited from earlier work
E. coli JMI 109 = experiment: MIC assay (CLSI broth microdilution; checkerboard with rifampin); assay type: cell-based, Escherichia coli; conditions: in combination with rifampin (0.25 µg/mL), duplicate checkerboard assays; polymyxin-nonsusceptible strain
Method: as §1

[3] = patients, in selected materials; cited from earlier work
[4] = monkeys; cited from earlier work
A. baumannii CMI 417 = experiment: MIC assay (CLSI broth microdilution; checkerboard with rifampin); assay type: cell-based, Acinetobacter baumannii; conditions: in combination with rifampin (0.25 µg/mL), duplicate checkerboard assays; polymyxin-nonsusceptible strain
Method: as §1

Escherichia coli C175-94 = experiment: Murine urinary infection efficacy study; assay type: in vivo
Method: The study used 64 outbred, OF-1 female mice (Charles River, France) weighing 28 -32 grams and Escherichia coli C175-94 (serotype O8:K48:H4), a clinical isolate elaborating type 1fimbriae. The peptides were NAB815 (Lot 1054308) and polymyxin B (Sigma-Aldrich, batch BCBF8382V). The study was performed by Statens Serum Institut, Copenhagen, Denmark.
Three days before the start of the study and during the study, the mice had free access to 5% glucose as drinking water.
On day 0, the urine was removed from the bladder by gently pressing the abdomen, Thereafter, the mouse was anaesthetized with approximately 0.15 ml of Zoletil mix s.c. A syringe with polyethylene catheter (Becton Dickison) containing the bacterial suspension was inserted via the urethra into the bladder and 50 µl of the bacterial inoculum was slowly injected into the bladder. Hereafter, the mouse was left in the cage. Mice were kept in a warming cabinet and were under surveillance until fully awake.
After measuring the colony forming units (CFUs), the inoculum was determined to contain 9.38 log10 CFU/ml, corresponding to 8.08 log10 CFU/mouse.
On day 1 and on day 2 postinfection, the mice were treated subcutaneously with solutions (0.2 ml) containing NAB815, polymyxin B or vehicle (0.9% NaCl) twice a day. The treatment groups (six mice in each) were the following: vehicle control; NAB815, 0.25 mg/kg/dose; NAB815, 0.5 mg/kg/dose; NAB815, 1 mg/kg/dose; NAB815, 2 mg/kg/dose; polymyxin B, 0.25 mg/kg/dose; polymyxin B, 0.5 mg/kg/dose; polymyxin B, 1 mg/kg/dose; and polymyxin B, 2 mg/kg/dose. In addition, one group served as a pretreatment control to help to assess as how the infection has proceeded before the start of the treatment on day 1 postinfection.
On days 1, 2 and 3 postinfection urine was sampled for colony counts. On day 1 postinfection (pretreatment control group) and on day 3 postinfection (all the other groups) after the urine sample was taken, mice were sacrificed by cervical dislocation and bladder and kidneys were removed aseptically. The bladder and kidneys were stored at -80 °C and later homogenized in 0.5 and 1 ml saline, respectively.
CFUs in urine were determined immediately within 2-3 hours after sampling. Frozen organs were thawed and homogenized with steel beads on a tissue lyser. All samples, urine, kidney and bladder, were 10 fold diluted in saline and 20-µl spots were applied on blood agar plates in duplicates. In addition, undiluted samples of urine (2-100 µl depending on the amount of urine) were spread on a separate agar plate to determine the lowest possible detection level of the colony counts. All agar plates were incubated 18-22 h at 35 °C in ambient air.

A. baumannii ATCC 19606 = test system: A. baumannii ATCC 19606
Method: as §1

A. baumannii JMI 48125 = test system: A. baumannii JMI 48125
Method: as §1

P. aeruginosa ATCC 27853 = test system: P. aeruginosa ATCC 27853
Method: as §1

E. coli JMI 3328 = test system: E. coli JMI 3328
Method: as §1

K. pneumoniae ATCC 43816 = test system: K. pneumoniae ATCC 43816
Method: as §1

E. coli ATCC 25922 = test system: E. coli ATCC 25922
Method: as §1

K. pneumoniae JMI 27072 = test system: K. pneumoniae JMI 27072
Method: as §1

P. aeruginosa JMI 7445 = test system: P. aeruginosa JMI 7445
Method: as §1

[5] = of all the 24 mice treated at 0.25-2 mg/kg/dose
[6] = alone, Müller-Hinton II broth, 35°C, 20 hours
[7] = in combination with rifampin (0.25 µg/mL), duplicate checkerboard assays

Polymyxin B
MIC (K. pneumoniae JMI 27068): 1 µg/mL | S-Crea and BUN response [1]: elicited a rapid onset of S-Crea and BUN response | S-Crea and BUN response [2]: lack of response | MIC (E. coli JMI 109): 0.5 to 1 µg/mL | nephrotoxicity rate [3]: ≤ 55% | S-Crea and BUN response [4]: elicited a rapid onset of S-Crea and BUN response | MIC (A. baumannii CMI 417): 1 µg/mL | dose-response in the CFUs in the bladder and in the kidneys (Escherichia coli C175-94; mice, 0.25-2 mg/kg/dose subcutaneously twice a day): did not show any dose-response tendency | CFU levels in urine, day 3 versus pretreatment control group on day 1 postinfection (Escherichia coli C175-94; mice, any dose group (0.25, 0.5, 1, 2 mg/kg/dose) subcutaneously twice a day): no significant differences | number of mice with bacterial levels below the detection limit in the kidneys (Escherichia coli C175-94; [5]): 10 | number of mice with bacterial levels below the detection limit in the urine (Escherichia coli C175-94; [5]): 1 | MIC (A. baumannii ATCC 19606; [6]): 2 µg/mL | MIC (A. baumannii ATCC 19606; [7]): 0.5 µg/mL | MIC (A. baumannii JMI 48125; [6]): 2 µg/mL | MIC (A. baumannii JMI 48125; [7]): 1 µg/mL | MIC (P. aeruginosa ATCC 27853; [6]): 2 µg/mL | MIC (P. aeruginosa ATCC 27853; [7]): 1 µg/mL | MIC (E. coli JMI 3328; [6]): 2 µg/mL | MIC (E. coli JMI 3328; [7]): 0.5 to 1 µg/mL | MIC (K. pneumoniae ATCC 43816; [6]): 2 µg/mL | MIC (K. pneumoniae ATCC 43816; [7]): 0.5 to 1 µg/mL | MIC (E. coli ATCC 25922; [6]): 2 µg/mL | MIC (E. coli ATCC 25922; [7]): 0.5 to 1 µg/mL | MIC (K. pneumoniae JMI 27072; [6]): 2 µg/mL | MIC (K. pneumoniae JMI 27072; [7]): 1 µg/mL | MIC (P. aeruginosa JMI 7445; [6]): 2 µg/mL | MIC (P. aeruginosa JMI 7445; [7]): 1 µg/mL
